Results reported in ChEMBL document CHEMBL1143926, “Synthesis of novel analogues of (+)-varitriol via olefin cross-metathesis reaction” (Bioorg Med Chem Lett, 2008).
Calls of active or inactive are those of the source. The calls are words filed in the database; no cut-off is given here.

Tests used:
HT-29 = assay: Cytotoxicity against human HT29 cells after 24 hrs by MTT assay; assay type: functional
[1] = Cytotoxicity against mouse RAW2647 cells after 24 hrs by MTT assay; assay type: cell-based, RAW264.7; settings: for Activity: raw264.7, 24 h; for GI50 at 24 h: RAW2647 cells
A549 = assay: Cytotoxicity against human A549 cells after 24 hrs by MTT assay; assay type: functional, cell-based
RXF 393 = assay: Cytotoxicity against human RXF393 cells; assay type: functional
DU-145 = assay: Cytotoxicity against human DU145 cells; assay type: functional
HL-60 = assay: Cytotoxicity against human HL60 cells; assay type: functional
CCRF-CEM = assay: Cytotoxicity against human CCRF-CEM cells; assay type: functional
COLO 205 = assay: Cytotoxicity against human COLO205 cells; assay type: functional
T47D = assay: Cytotoxicity against human T47D cells; assay type: functional
SNB-75 = assay: Cytotoxicity against human SNB75 cells; assay type: functional
OVCAR-5 = assay: Cytotoxicity against human OVCAR5 cells; assay type: functional
SNB-19 = assay: Cytotoxicity against human SNB19 cells; assay type: functional

Structure (SMILES)	GI50 (HT-29)	Activity (A549)	GI50 at 24 h [1] [µM]	also measured
COc1cc(/C=C/[C@H]2O[C@@H]3OC(C)(C)O[C@@H]3[C@H]2O)cc(OC)c1	20 10^-4 M	inactive	–	Activity [1]: Not Active
COc1cccc(/C=C/[C@H]2OC(OC)[C@@H]3OC(C)(C)O[C@H]23)c1 (stereo not given in full)	–	inactive	–	Activity (HT-29): inactive; Activity [1]: Not Active
COc1cccc(/C=C/C2OC(C)C(O)C2O)c1CO (racemic) [(+/-)-VARITRIOL]	–	–	–	GI50 (RXF 393): 0.163 µM; GI50 (DU-145): 1.1 µM; GI50 (HL-60): 25.2 µM; GI50 (CCRF-CEM): 26 µM; GI50 (COLO 205): 95.9 µM; GI50 (T47D): 0.21 µM; GI50 (SNB-75): 0.244 µM; GI50 (OVCAR-5): 68.2 µM; GI50 (SNB-19): 91.3 µM
COc1cc(/C=C/[C@H]2OC(OC)[C@@H]3OC(C)(C)O[C@H]23)cc2c1OCO2 (stereo not given in full)	14 10^-4 M	inactive	462	–
COc1cccc(/C=C/[C@H]2O[C@@H]3OC(C)(C)O[C@@H]3[C@H]2O)c1	17.5 10^-4 M	inactive	671	–
COc1cc(/C=C/[C@H]2OC(OC)[C@@H]3OC(C)(C)O[C@H]23)cc(OC)c1 (stereo not given in full)	–	inactive	541	Activity (HT-29): inactive
COc1ccc(/C=C/[C@H]2OC(OC)[C@@H]3OC(C)(C)O[C@H]23)cc1 (stereo not given in full)	4.7 10^-4 M	inactive	696	–
COc1cc(/C=C/[C@H]2OC(OC)[C@@H]3OC(C)(C)O[C@H]23)ccc1O (stereo not given in full)	13.2 10^-4 M	inactive	835	–
